# Experimental data taken from PubChem BioAssay AID2060489 (Molecular Pharmacology Branch, DTP, NCI, 2025).
# pIC50: −log10 of the molar value.
# Test system: 922993-354-T-J3-PDC complex spheroids, viability
# Assay: Anticancer human tumor 922993-354-T-J3-PDC patient-derived endometrial carcinoma cell line growth inhibition [GQUAD]
# Settings: for pIC50: curve of first compound; for viability, T/C: stronger effect = lower value
# Summary of the method: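 Multi-cell-type spheroids of tumor cells with HUVEC and mesenchymal stem cells, treated with drug combinations. Concentrations descend in half-log steps from near clinical Cmax, or from 10 microM where Cmax is unknown; viability read-out.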
# [1] = second compound 0.0316 µM, first compound 0.0316 µM
# [2] = second compound 0.0316 µM, first compound 0.1 µM
# [3] = second compound 0.0316 µM, first compound 0.316 µM
# [4] = second compound 0.0316 µM, first compound 1 µM
# [5] = second compound 0.0316 µM, first compound 3.16 µM
# [6] = second compound 0.0316 µM, first compound 10 µM
# [7] = second compound 0.1 µM, first compound 0.0316 µM
# [8] = second compound 0.1 µM, first compound 0.1 µM
# [9] = second compound 0.1 µM, first compound 0.316 µM
# [10] = second compound 0.1 µM, first compound 1 µM
# [11] = second compound 0.1 µM, first compound 3.16 µM
# [12] = second compound 0.1 µM, first compound 10 µM
# [13] = second compound 0.316 µM, first compound 0.0316 µM
# [14] = second compound 0.316 µM, first compound 0.1 µM
# [15] = second compound 0.316 µM, first compound 0.316 µM
# [16] = second compound 0.316 µM, first compound 1 µM
# [17] = second compound 0.316 µM, first compound 3.16 µM
# [18] = second compound 0.316 µM, first compound 10 µM
# [19] = second compound 1 µM, first compound 0.0316 µM
# [20] = second compound 1 µM, first compound 0.1 µM
# [21] = second compound 1 µM, first compound 0.316 µM
# [22] = second compound 1 µM, first compound 1 µM
# [23] = second compound 1 µM, first compound 3.16 µM
# [24] = second compound 1 µM, first compound 10 µM
# [25] = second compound 3.16 µM, first compound 0.0316 µM
# [26] = second compound 3.16 µM, first compound 0.1 µM
# [27] = second compound 3.16 µM, first compound 0.316 µM
# [28] = second compound 3.16 µM, first compound 1 µM
# [29] = second compound 3.16 µM, first compound 3.16 µM
# [30] = second compound 3.16 µM, first compound 10 µM
# [31] = second compound 10 µM, first compound 0.0316 µM
# [32] = second compound 10 µM, first compound 0.1 µM
# [33] = second compound 10 µM, first compound 0.316 µM
# [34] = second compound 10 µM, first compound 1 µM
# [35] = second compound 10 µM, first compound 3.16 µM
# [36] = second compound 10 µM, first compound 10 µM
# 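Also: spheroids exposed to compounds for seven days.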
# 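For viability, T/C in this document: 100% = DMSO vehicle control viability.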
smiles,measurement,setting,value
COc1ncnc(C2CC2)c1-c1ncc2cnn(Cc3ccc(-c4nc(C(F)(F)F)cn4C(C)C)cc3)c2n1 + Cc1[nH]c2ccc(F)cc2c1-c1nc2c3cccnc3c3ncccc3c2[nH]1,pIC50,second compound 0.0316 µM,< 5.00
same,pIC50,second compound 0.1 µM,< 5.00
same,pIC50,second compound 0.316 µM,< 5.00
same,pIC50,second compound 1 µM,< 5.00
same,pIC50,second compound 3.16 µM,< 5.00
same,pIC50,second compound 10 µM,< 5.00
same,"viability, T/C",[1],94.6%
same,"viability, T/C",[2],87.3%
same,"viability, T/C",[3],80.7%
same,"viability, T/C",[4],82.3%
same,"viability, T/C",[5],90.7%
same,"viability, T/C",[6],88.8%
same,"viability, T/C",[7],123%
same,"viability, T/C",[8],99.2%
same,"viability, T/C",[9],90.1%
same,"viability, T/C",[10],70.1%
same,"viability, T/C",[11],96.2%
same,"viability, T/C",[12],93.2%
same,"viability, T/C",[13],97.2%
same,"viability, T/C",[14],111%
same,"viability, T/C",[15],94.7%
same,"viability, T/C",[16],92.2%
same,"viability, T/C",[17],91.4%
same,"viability, T/C",[18],79.8%
same,"viability, T/C",[19],98.2%
same,"viability, T/C",[20],86.6%
same,"viability, T/C",[21],107%
same,"viability, T/C",[22],88.2%
same,"viability, T/C",[23],110%
same,"viability, T/C",[24],95.1%
same,"viability, T/C",[25],80.2%
same,"viability, T/C",[26],116%
same,"viability, T/C",[27],105%
same,"viability, T/C",[28],124%
same,"viability, T/C",[29],123%
same,"viability, T/C",[30],90.6%
same,"viability, T/C",[31],104%
same,"viability, T/C",[32],103%
same,"viability, T/C",[33],116%
same,"viability, T/C",[34],92.3%
same,"viability, T/C",[35],95.7%
same,"viability, T/C",[36],97.6%
O=c1[nH]cc(F)c(=O)[nH]1 + CN(C)c1ccc(Nc2c3ccc(NC(=O)CCN4CCCC4)cc3nc3cc(NC(=O)CCN4CCCC4)ccc23)cc1,pIC50,second compound 0.0316 µM,5.23
same,pIC50,second compound 0.1 µM,5.34
same,pIC50,second compound 0.316 µM,5.41
same,pIC50,second compound 1 µM,5.23
same,pIC50,second compound 3.16 µM,5.23
same,pIC50,second compound 10 µM,5.27
same,"viability, T/C",[1],82.1%
same,"viability, T/C",[2],84.7%
same,"viability, T/C",[3],81.8%
same,"viability, T/C",[4],91.8%
same,"viability, T/C",[5],83.7%
same,"viability, T/C",[6],21.4%
same,"viability, T/C",[7],110%
same,"viability, T/C",[8],93.9%
same,"viability, T/C",[9],112%
same,"viability, T/C",[10],81%
same,"viability, T/C",[11],69.2%
same,"viability, T/C",[12],15.7%
same,"viability, T/C",[13],103%
same,"viability, T/C",[14],100%
same,"viability, T/C",[15],91.4%
same,"viability, T/C",[16],78.1%
same,"viability, T/C",[17],56.8%
same,"viability, T/C",[18],22.5%
same,"viability, T/C",[19],95.8%
same,"viability, T/C",[20],100%
same,"viability, T/C",[21],90.6%
same,"viability, T/C",[22],105%
same,"viability, T/C",[23],82.1%
same,"viability, T/C",[24],21.9%
same,"viability, T/C",[25],90.4%
same,"viability, T/C",[26],113%
same,"viability, T/C",[27],105%
same,"viability, T/C",[28],98.2%
same,"viability, T/C",[29],87.5%
same,"viability, T/C",[30],18.8%
same,"viability, T/C",[31],117%
same,"viability, T/C",[32],135%
same,"viability, T/C",[33],121%
same,"viability, T/C",[34],117%
same,"viability, T/C",[35],72.9%
same,"viability, T/C",[36],23.1%
O=c1[nH]cc(F)c(=O)[nH]1 + Cc1[nH]c2ccc(F)cc2c1-c1nc2c3cccnc3c3ncccc3c2[nH]1,pIC50,second compound 0.0316 µM,< 5.00
same,pIC50,second compound 0.1 µM,< 5.00
same,pIC50,second compound 0.316 µM,< 5.00
same,pIC50,second compound 1 µM,< 5.00
same,pIC50,second compound 3.16 µM,< 5.00
same,pIC50,second compound 10 µM,< 5.00
same,"viability, T/C",[1],85%
same,"viability, T/C",[2],77.8%
same,"viability, T/C",[3],113%
same,"viability, T/C",[4],105%
same,"viability, T/C",[5],80.4%
same,"viability, T/C",[6],55.3%
same,"viability, T/C",[7],117%
same,"viability, T/C",[8],87.6%
same,"viability, T/C",[9],102%
same,"viability, T/C",[10],99.6%
same,"viability, T/C",[11],69.2%
same,"viability, T/C",[12],66.4%
same,"viability, T/C",[13],119%
same,"viability, T/C",[14],83.7%
same,"viability, T/C",[15],103%
same,"viability, T/C",[16],94.3%
same,"viability, T/C",[17],95.5%
same,"viability, T/C",[18],64.8%
same,"viability, T/C",[19],87.2%
same,"viability, T/C",[20],104%
same,"viability, T/C",[21],95.8%
same,"viability, T/C",[22],71.6%
same,"viability, T/C",[23],82.1%
same,"viability, T/C",[24],53.9%
same,"viability, T/C",[25],90%
same,"viability, T/C",[26],84.6%
same,"viability, T/C",[27],98.8%
same,"viability, T/C",[28],96.8%
same,"viability, T/C",[29],76.2%
same,"viability, T/C",[30],59%
same,"viability, T/C",[31],104%
same,"viability, T/C",[32],109%
same,"viability, T/C",[33],93.6%
same,"viability, T/C",[34],92.6%
same,"viability, T/C",[35],103%
same,"viability, T/C",[36],61.6%
CC1COCCN1c1cc(C2(O)CC3CCC(C2)O3)c2cnn(-c3ccn[nH]3)c2n1 (stereo not drawn) + CN(C)c1ccc(Nc2c3ccc(NC(=O)CCN4CCCC4)cc3nc3cc(NC(=O)CCN4CCCC4)ccc23)cc1,pIC50,second compound 0.0316 µM,6.34
same,pIC50,second compound 0.1 µM,6.26
same,pIC50,second compound 0.316 µM,6.32
same,pIC50,second compound 1 µM,6.11
same,pIC50,second compound 3.16 µM,6.28
same,pIC50,second compound 10 µM,6.04
same,"viability, T/C",[1],124%
same,"viability, T/C",[2],78.8%
same,"viability, T/C",[3],67%
same,"viability, T/C",[4],29.4%
same,"viability, T/C",[5],23.3%
same,"viability, T/C",[6],18.4%
same,"viability, T/C",[7],82.8%
same,"viability, T/C",[8],82.2%
same,"viability, T/C",[9],68.2%
same,"viability, T/C",[10],29.8%
same,"viability, T/C",[11],21.3%
same,"viability, T/C",[12],22%
same,"viability, T/C",[13],112%
same,"viability, T/C",[14],86.1%
same,"viability, T/C",[15],66.4%
same,"viability, T/C",[16],27.3%
same,"viability, T/C",[17],22.1%
same,"viability, T/C",[18],19.7%
same,"viability, T/C",[19],98.6%
same,"viability, T/C",[20],102%
same,"viability, T/C",[21],70.5%
same,"viability, T/C",[22],47.3%
same,"viability, T/C",[23],20.2%
same,"viability, T/C",[24],19.7%
same,"viability, T/C",[25],127%
same,"viability, T/C",[26],79.7%
same,"viability, T/C",[27],65.5%
same,"viability, T/C",[28],39.4%
same,"viability, T/C",[29],21.5%
same,"viability, T/C",[30],25.4%
same,"viability, T/C",[31],115%
same,"viability, T/C",[32],113%
same,"viability, T/C",[33],86.4%
same,"viability, T/C",[34],48.8%
same,"viability, T/C",[35],21.7%
same,"viability, T/C",[36],25.2%
